Counter-ions that a name gives are not always drawn. Like-named read-outs stand apart in the source and are kept apart here.
Tests used:
[1] = parameters: method as in earlier work; conditions: ref EPI suite (Experimental database or KOWWIN v1.67) and ChemAxon; cited from earlier work
human liver microsomes = system: human liver microsomes; parameters: method as in PMID 1389950; conditions: citalopram metabolized by cytochrome P450 isozyme to N-desmethylcitalopram; cited from earlier work
[2] = system: zebrafish (Danio rerio) eleutheroembryos; test: Bioconcentration experiment (OECD 305 based), 48 h exposure; type: in vivo; conditions: pH 7.8; for BCF48h: Cf(48h)/Cw(48h); for BCFk: k1/k2, first-order one-compartment model, 48 h
Protocol: Zebrafish eleutheroembryos were cultured from wild-type adult zebrafish bred and maintained in AZTI Zebrafish Facility (REGA ES489010006105) under standard conditions. The OECD 305 technical guidance was used as reference to establish the experimental conditions for growing as well as the nominal concentrations for the contaminants (dissolved oxygen ≥ 60 %, 27°C and pH 7.8 ± 0.2). Exposure solutions were prepared with the composition of fresh river water (ISO 73463 [43]): 220.5 mg of CaCl2, 63 mg of NaHCO3, 5.5 mg of KCl, and 60.1 mg of MgSO4 per liter of distilled water in plastic tanks.
[…]. […] […].
Bioconcentration factor (BCF) was estimated as the ratio between the concentration of the compound in the target organism, at the maximum time of exposure and the mean calculated in the exposure medium (BCF48h). […]
Where Cf is the concentration in fish (ng·g^-1), t is the exposure time (h), k1 is the first-order uptake constant (L·kg^-1·h^-1), Cw is the concentration of the chemical in the exposure media (μg·L^-1), and k2 is the first-order elimination rate constant (h^-1). Assuming a negligible concentration in fish samples at t0 and considering its constant in the exposure medium, the equations can be expressed as: 3 Cfuptake=k1/k2.Cw1−e^−k2t 4 Cfdepuration=Cf,0.e^−k2t
Where Cf,0 denotes the compound concentration in the organism, when the depuration phase starts. Experimental kinetics data were done using the software NONLIN 5.1, which is specific for no linear adjustments (Nashville, TN). BCFs were calculated applying the two procedures, getting BCF48h (Cf (48h) / Cw (48h)) and BCFk (k1/k2) for comparison purposes when steady state is reached.

[3] = system: zebrafish (Danio rerio) eleutheroembryos; test: SSRI metabolization in eleutheroembryos exposed to the mixture of parent compounds
Protocol: (§1) […] The concentration of the target analyte was determined in both eleutheroembryos and exposure medium all throughout the experiment.
(§2) Fish roe samples from lumpfish and zebrafish eleutheroembryos: 10 mg of wet weigh (w/w) fortified with a solution containing all tested pharmaceuticals at 240 ng·g^-1 and paroxetine d6 as IS at 100 ng·g^-1 was a mixture with 500 μL of acetonitrile and sonicated with ultrasonic probe at 40% of amplitude for 60 s to assist the extraction of the selected compounds and the mixture was centrifuged. The residue was discarded, and the supernatant was cleaned using 100 mg of C18, vortexed for 30 s, and centrifuged. Acetonitrile was led to evaporation before derivatization and injection to the GC-MS following the same steps as described above.

[4] = as above; conditions: zebrafish (Danio rerio), whole eleutheroembryos (larvae), other: waterborne exposure in exposure medium, pH 7.8, metabolite concentration in eleutheroembryos; for concentration at 6 h: t = 6h; for concentration at 24 h: t = 24h; for concentration at 45 h: t = 45h; for concentration at 48 h: t = 48h
Protocol: as §1, §2

[5] = ref SCIfinder; cited from earlier work
[6] = system: Japanese medaka (Oryzias latipes); conditions: cited from earlier work; for average concentration in fish: Japanese medaka exposed to fluoxetine, day 7
zebrafish larvae = conditions: cited from earlier work; for calculated BCFs: individual compounds and mixtures at 5, 10 and 25 μg·L^-1
adult zebrafish = conditions: cited from earlier work
[7] = system: adult male fathead minnows (Phimephales promelas); conditions: plasma, 3, 11 and 28 ng·L^-1 in water; cited from earlier work
[8] = parent exposure concentration 80 μg·L^-1, t = 6h
[9] = parent exposure concentration 80 μg·L^-1, t = 24h
[10] = parent exposure concentration 80 μg·L^-1, t = 45h
[11] = parent exposure concentration 80 μg·L^-1, t = 48h
[12] = parent exposure concentration 300 μg·L^-1, t = 6h
[13] = parent exposure concentration 300 μg·L^-1, t = 24h
[14] = parent exposure concentration 300 μg·L^-1, t = 45h
[15] = parent exposure concentration 300 μg·L^-1, t = 48h
[16] = parent exposure concentration 80 μg·L^-1
[17] = parent exposure concentration 300 μg·L^-1

## CN(C)CCCC1(c2ccc(F)cc2)OCc2cc(C#N)ccc21 (stereo not shown) [Citalopram, citalopram hydrobromide]
[1]
  Log kow: 3.74

## CNCCCC1(c2ccc(F)cc2)OCc2cc(C#N)ccc21 (stereo not shown) [Desmethylcitalopram, desmethylcitalopram hydrochloride]
Human liver microsomes
  ratio for the metabolite: 5–10 fold
[1]
  Log kow: 3.38
[2]; nominal 80 μg·L^-1
  BCF48h: 0.69
  BCFk: 0.7
[2]; nominal 300 μg·L^-1
  BCF48h: 0.21
  BCFk: 0.35
[3]; [8]
  ratio metabolite / parent compound in the larvae: 0.07
[3]; [9]
  ratio metabolite / parent compound in the larvae: 0.06
[3]; [10]
  ratio metabolite / parent compound in the larvae: 0.15
[3]; [11]
  ratio metabolite / parent compound in the larvae: 0.54
[3]; [12]
  ratio metabolite / parent compound in the larvae: 0.47
[3]; [13]
  ratio metabolite / parent compound in the larvae: 0.78
[3]; [14]
  ratio metabolite / parent compound in the larvae: 0.15
[3]; [15]
  ratio metabolite / parent compound in the larvae: 0.26
[4]; [16]
  concentration at 6 h: 8.9 ng/g
  concentration at 24 h: 10.1 ng/g
  concentration at 45 h: 14.3 ng/g
  concentration at 48 h: 32.3 ng/g
[4]; [17]
  concentration at 6 h: 118 ng/g
  concentration at 24 h: 297 ng/g
  concentration at 45 h: 203 ng/g
  concentration at 48 h: 123 ng/g
[5]
  pKa: 10.54

## CNCCC(Oc1ccc(C(F)(F)F)cc1)c1ccccc1 (stereo not shown) [Fluoxetine, Fluoxetine hydrochloride]
[6]
  average concentration in fish: 40.8 ± 5.0 ng·g^-1 w.w.
[6]; Japanese medaka, nominal fluoxetine concentration 640 ng·L^-1
  kinetic BCF: 80
[6]; Japanese medaka, pH 7
  BCF: 9 L/kg
[6]; Japanese medaka, pH 8
  BCF: 30 L/kg
[6]; Japanese medaka, pH 9
  BCF: 260 L/kg
Zebrafish larvae; high concentration exposure 5000 μg·L^-1
  bioaccumulation: 195
Zebrafish larvae
  calculated BCFs: 94–170
Zebrafish larvae; low and moderate concentrations 10–50 μg·L^-1
  bioaccumulation: around 30
[1]
  Log kow: 4.65
Adult zebrafish; exposed to 0.9 and 3.20 μg·L^-1
  BCF: 20 L/kg

## NCCC(Oc1ccc(C(F)(F)F)cc1)c1ccccc1 (stereo not shown) [Norfluoxetine, norfluoxetine hydrochloride]
[6]
  average concentration in fish: 64.3 ± 8.7 ng·g^-1 w.w.
[5]
  pKa: 9.05

## N[C@H]1CC[C@@H](c2ccc(Cl)c(Cl)c2)c2ccccc21 [Norsertraline, norsertraline hydrochloride]
[1]
  Log kow: 4.72
[2]; nominal 50 μg·L^-1
  BCF48h: 26.5
  BCFk: 38
[3]; [8]
  metabolite concentration in eleutheroembryos: 44.4 ng/g
  ratio metabolite / parent compound in the larvae: 0.17
[3]; [9]
  metabolite concentration in eleutheroembryos: 504.0 ng/g
  ratio metabolite / parent compound in the larvae: 0.12
[3]; [10]
  metabolite concentration in eleutheroembryos: 751.8 ng/g
  ratio metabolite / parent compound in the larvae: 0.33
[3]; [11]
  metabolite concentration in eleutheroembryos: 731.3 ng/g
  ratio metabolite / parent compound in the larvae: 0.16
[3]; [12]
  metabolite concentration in eleutheroembryos: 141.4 ng/g
  ratio metabolite / parent compound in the larvae: 0.17
[3]; [13]
  metabolite concentration in eleutheroembryos: 1228.7 ng/g
  ratio metabolite / parent compound in the larvae: 0.18
[3]; [14]
  metabolite concentration in eleutheroembryos: 1968.2 ng/g
  ratio metabolite / parent compound in the larvae: 0.41
[3]; [15]
  metabolite concentration in eleutheroembryos: 2594.7 ng/g
  ratio metabolite / parent compound in the larvae: 0.47

## Fc1ccc([C@@H]2CCNC[C@H]2COc2ccc3c(c2)OCO3)cc1 [Paroxetine, paroxetine hemihydrate]
Zebrafish larvae
  calculated BCFs: 190–290
[1]
  Log kow: 3.95
[5]
  pKa: 9.90

## CN[C@H]1CC[C@@H](c2ccc(Cl)c(Cl)c2)c2ccccc21 [Sertraline, sertraline hydrochloride]
[1]
  Log kow: 5.29
Adult zebrafish; exposed to 0.2 and 0.76 μg·L^-1
  BCF: 50 to 70 L/kg
[7]
  bioaccumulation values: approximately 80

Source: article PMC8405463, “Development of a method for assessing the accumulation and metabolization of antidepressant drugs in zebrafish (Danio rerio) eleutheroembryos” (Analytical and Bioanalytical Chemistry, 2021)
